Data: ChEMBL document CHEMBL1201862, “PubChem BioAssay data set” (2004)
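Protocol summary: plate cells (96-well), add compound at 5 concentrations, incubate 48 h, interpolate endpoints linearly. Abbreviation: GI50, concentration required for 50% inhibition of growth.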 Active and inactive are the calls of the source. No stated cut-off is given here; in the data, active = GI50 up to about 1.1 µM and inactive = higher.

Key:
Assay in all cases: NCI anticancer screen, dose series, 48 h
[1] = tested on: RPMI-8226
[2] = tested on: IGROV-1
[3] = tested on: OVCAR-5
[4] = tested on: LOX IMVI
[5] = tested on: UO-31
[6] = tested on: RXF 393
[7] = tested on: UACC-257
[8] = tested on: CAKI-1
[9] = tested on: M19-MEL
[10] = tested on: SF-295
[11] = tested on: Malme-3M
[12] = tested on: SK-OV-3
[13] = tested on: KM12
[14] = tested on: SNB-78
[15] = tested on: A549
[16] = tested on: DMS-114
[17] = tested on: NCI-H23
[18] = tested on: ACHN
[19] = tested on: SN12C
[20] = tested on: HCC 2998
[21] = tested on: SNB-19
[22] = tested on: HT-29
[23] = tested on: TK-10
[24] = tested on: SR
[25] = tested on: HL-60
[26] = tested on: OVCAR-3
[27] = tested on: XF498
[28] = tested on: SF-268
[29] = tested on: NCI-H522
[30] = tested on: HOP-62
[31] = tested on: SK-MEL-5
[32] = tested on: OVCAR-4
[33] = tested on: SW-620
[34] = tested on: DMS-273
[35] = tested on: SNB-75
[36] = tested on: HOP-18
[37] = tested on: LXFL 529
[38] = tested on: EKVX
[39] = tested on: SK-MEL-28
[40] = tested on: NCI-H226
[41] = tested on: A498
[42] = tested on: SK-MEL-2
[43] = tested on: 786-0
[44] = tested on: HCT-15
[45] = tested on: OVCAR-8
[46] = tested on: HCT-116
[47] = tested on: COLO 205
[48] = tested on: NCI-H460
[49] = tested on: DLD-1
[50] = tested on: M14
[51] = tested on: KM-20L2
[52] = tested on: MOLT-4
[53] = tested on: HOP-92
[54] = tested on: K562
[55] = tested on: SF-539
[56] = tested on: CCRF-CEM
[57] = tested on: UACC-62
[58] = tested on: U-251
[59] = tested on: RXF 631

SMILES: O=C1C/C(=C/c2ccc(/C=C3/CC(=O)N(c4cccc(Br)c4)C3=O)cc2)C(=O)N1c1cccc(Br)c1
- GI50 [1]: > 100 µM (inactive)
- GI50 [2]: > 100 µM (inactive)
- GI50 [3]: > 100 µM (inactive)
- GI50 [4]: > 100 µM (inactive)
- GI50 [5]: > 100 µM (inactive)
- GI50 [6]: 30.1 µM (inactive)
- GI50 [7]: > 100 µM (inactive)
- GI50 [8]: > 100 µM (inactive)
- GI50 [9]: > 100 µM (inactive)
- GI50 [10]: 60.7 µM (inactive)
- GI50 [11]: > 100 µM (inactive)
- GI50 [12]: > 100 µM (inactive)
- GI50 [13]: > 100 µM (inactive)
- GI50 [14]: 36.2 µM (inactive)
- GI50 [15]: > 100 µM (inactive)
- GI50 [16]: > 100 µM (inactive)
- GI50 [17]: > 100 µM (inactive)
- GI50 [18]: > 100 µM (inactive)
- GI50 [19]: > 100 µM (inactive)
- GI50 [20]: > 100 µM (inactive)
- GI50 [21]: > 100 µM (inactive)
- GI50 [22]: > 100 µM (inactive)
- GI50 [23]: > 100 µM (inactive)
- GI50 [24]: 97.3 µM (inactive)
- GI50 [25]: > 100 µM (inactive)
- GI50 [26]: > 100 µM (inactive)
- GI50 [27]: 26.5 µM (inactive)
- GI50 [28]: > 100 µM (inactive)
- GI50 [29]: > 100 µM (inactive)
- GI50 [30]: > 100 µM (inactive)
- GI50 [31]: > 100 µM (inactive)
- GI50 [32]: > 100 µM (inactive)
- GI50 [33]: > 100 µM (inactive)
- GI50 [34]: > 100 µM (inactive)
- GI50 [35]: 23.5 µM (inactive)
- GI50 [36]: > 100 µM (inactive)
- GI50 [37]: > 100 µM (inactive)
- GI50 [38]: > 100 µM (inactive)
- GI50 [39]: > 100 µM (inactive)
- GI50 [40]: > 100 µM (inactive)
- GI50 [41]: > 71 µM (inactive)
- GI50 [42]: > 100 µM (inactive)
- GI50 [43]: 58.1 µM (inactive)
- GI50 [44]: > 100 µM
- GI50 [45]: > 100 µM (inactive)
- GI50 [46]: > 100 µM (inactive)
- GI50 [47]: > 100 µM (inactive)
- GI50 [48]: > 100 µM (inactive)
- GI50 [49]: > 100 µM (inactive)
- GI50 [50]: > 100 µM (inactive)
- GI50 [51]: > 100 µM (inactive)
- GI50 [52]: 54.2 µM (inactive)
- GI50 [53]: 50.2 µM (inactive)
- GI50 [54]: > 67 µM (inactive)
- GI50 [55]: 51.5 µM (inactive)
- GI50 [56]: 66.1 µM (inactive)
- GI50 [57]: > 100 µM (inactive)
- GI50 [58]: > 81.7 µM (inactive)

SMILES: O=C1C2C(C(=O)N1Cc1ccccc1)N(Cc1ccccc1)C(=O)N2Cc1ccccc1 (centres undefined)
- GI50 [1]: > 100 µM (inactive)
- GI50 [2]: > 100 µM (inactive)
- GI50 [3]: > 100 µM (inactive)
- GI50 [4]: > 100 µM (inactive)
- GI50 [5]: > 100 µM (inactive)
- GI50 [6]: > 100 µM (inactive)
- GI50 [7]: > 100 µM (inactive)
- GI50 [8]: > 100 µM (inactive)
- GI50 [9]: > 100 µM (inactive)
- GI50 [10]: > 100 µM (inactive)
- GI50 [11]: > 100 µM (inactive)
- GI50 [12]: > 100 µM (inactive)
- GI50 [59]: > 100 µM (inactive)
- GI50 [13]: > 100 µM (inactive)
- GI50 [14]: > 100 µM (inactive)
- GI50 [15]: > 100 µM (inactive)
- GI50 [16]: > 100 µM (inactive)
- GI50 [17]: > 100 µM (inactive)
- GI50 [18]: > 100 µM (inactive)
- GI50 [19]: > 100 µM (inactive)
- GI50 [20]: > 100 µM (inactive)
- GI50 [21]: > 100 µM (inactive)
- GI50 [22]: > 100 µM (inactive)
- GI50 [23]: > 100 µM (inactive)
- GI50 [24]: > 100 µM (inactive)
- GI50 [25]: > 100 µM (inactive)
- GI50 [26]: > 100 µM (inactive)
- GI50 [27]: > 100 µM (inactive)
- GI50 [28]: > 100 µM (inactive)
- GI50 [29]: > 100 µM (inactive)
- GI50 [30]: > 100 µM (inactive)
- GI50 [31]: > 100 µM (inactive)
- GI50 [32]: > 100 µM (inactive)
- GI50 [33]: > 100 µM (inactive)
- GI50 [35]: 59.3 µM (inactive)
- GI50 [37]: > 100 µM (inactive)
- GI50 [38]: > 100 µM (inactive)
- GI50 [39]: > 100 µM (inactive)
- GI50 [40]: > 100 µM (inactive)
- GI50 [41]: > 100 µM (inactive)
- GI50 [43]: > 100 µM (inactive)
- GI50 [44]: > 100 µM
- GI50 [45]: > 100 µM (inactive)
- GI50 [46]: > 100 µM (inactive)
- GI50 [47]: > 100 µM (inactive)
- GI50 [48]: > 100 µM (inactive)
- GI50 [49]: > 100 µM (inactive)
- GI50 [50]: > 100 µM (inactive)
- GI50 [51]: > 100 µM (inactive)
- GI50 [52]: > 100 µM (inactive)
- GI50 [53]: > 100 µM (inactive)
- GI50 [54]: > 100 µM (inactive)
- GI50 [55]: > 100 µM (inactive)
- GI50 [56]: > 100 µM (inactive)
- GI50 [57]: > 100 µM (inactive)
- GI50 [58]: > 100 µM (inactive)
